Results taken from ChEMBL document CHEMBL3885881, “DrugMatrix”.

Species: Rattus norvegicus
Test: DrugMatrix - Regimen: Daily Repeat
Format: toxicity, organism-based, Sprague-Dawley
Design: regimen Daily Repeat, gender Male, age 6-8 weeks
Settings: in vivo, iv, vehicle 100 % SALINE; for ABSOLUTE BASOPHIL / ABSOLUTE EOSINOPHIL / ABSOLUTE LYMPHOCYTE / ABSOLUTE MONOCYTE / ABSOLUTE SEGMENTED NEUTROPHIL / BASOPHIL / EOSINOPHIL / ERYTHROCYTE COUNT / HEMATOCRIT / HEMOGLOBIN / LEUKOCYTE COUNT / LYMPHOCYTE / MEAN CORPUSCULAR HEMOGLOBIN / MEAN CORPUSCULAR HEMOGLOBIN CONCENTRATION / MEAN CORPUSCULAR VOLUME / MONOCYTE / NEUTROPHIL / NUCLEATED RED BLOOD CELLS / PLATELET COUNT: tissue Blood; for ALANINE AMINOTRANSFERASE / ALBUMIN / ALKALINE PHOSPHATASE / ASPARTATE AMINOTRANSFERASE / BLOOD UREA NITROGEN / CARBON DIOXIDE / CHLORIDE / CHOLESTEROL / CREATINE PHOSPHOKINASE / CREATININE / GLUCOSE / LACTATE DEHYDROGENASE / LIPASE / PHOSPHORUS / POTASSIUM / SODIUM / TOTAL BILIRUBIN / TOTAL PROTEIN / URIC ACID: tissue Plasma
[1] = 200 mg/kg, 120 h, dose level Low, time 5 day
[2] = 800 mg/kg, 72 h, dose level High, time 3 day
[3] = 800 mg/kg, 120 h, dose level High, time 5 day

## CC1(C)S[C@@H]2[C@H](NC(=O)[C@H](NC(=O)N3CCNC3=O)c3ccccc3)C(=O)N2[C@H]1C(=O)O [AZLOCILLIN]
[1]
  ABSOLUTE BASOPHIL: 0 CELLS/uL
  ABSOLUTE EOSINOPHIL: 0 CELLS/uL
  ABSOLUTE LYMPHOCYTE: 10606.67 CELLS/uL
  ABSOLUTE MONOCYTE: 46.67 CELLS/uL
  ABSOLUTE SEGMENTED NEUTROPHIL: 980 CELLS/uL
  BASOPHIL: 0%
  EOSINOPHIL: 0%
  ERYTHROCYTE COUNT: 5.98 x10E6/uL
  HEMATOCRIT: 35.9%
  HEMOGLOBIN: 14.17 G/DL
  LEUKOCYTE COUNT: 11.63 x10E3/uL
  LYMPHOCYTE: 91.33%
  MEAN CORPUSCULAR HEMOGLOBIN: 23.7 pg
  MEAN CORPUSCULAR HEMOGLOBIN CONCENTRATION: 39.5 G/DL
  MEAN CORPUSCULAR VOLUME: 60.07 fL
  MONOCYTE: 0.33%
  NEUTROPHIL: 8.33%
  NUCLEATED RED BLOOD CELLS: 0.33 /100WBC
  PLATELET COUNT: 1262 x10E3/uL
  ALANINE AMINOTRANSFERASE: 76 u/L
  ALBUMIN: 4.17 G/DL
  ALKALINE PHOSPHATASE: 302.33 u/L
  ASPARTATE AMINOTRANSFERASE: 91.67 u/L
  BLOOD UREA NITROGEN: 17.67 mg/dL
  CARBON DIOXIDE: 25.67 mmol/L
  CHLORIDE: 101 MEQ/L
  CHOLESTEROL: 73 mg/dL
  CREATINE PHOSPHOKINASE: 333.33 u/L
  CREATININE: 0.19 mg/dL
  GLUCOSE: 172.67 mg/dL
  LACTATE DEHYDROGENASE: 301 u/L
  LIPASE: 9.33 u/L
  PHOSPHORUS: 11.1 mg/dL
  POTASSIUM: 5.74 MEQ/L
  SODIUM: 144.37 MEQ/L
  TOTAL BILIRUBIN: 0.13 mg/dL
  TOTAL PROTEIN: 6.33 G/DL
  URIC ACID: 1.6 mg/dL
[2]
  ABSOLUTE BASOPHIL: 0 CELLS/uL
  ABSOLUTE EOSINOPHIL: 64.67 CELLS/uL
  ABSOLUTE LYMPHOCYTE: 11014.33 CELLS/uL
  ABSOLUTE MONOCYTE: 68.67 CELLS/uL
  ABSOLUTE SEGMENTED NEUTROPHIL: 1119 CELLS/uL
  BASOPHIL: 0%
  EOSINOPHIL: 0.33%
  ERYTHROCYTE COUNT: 5.5 x10E6/uL
  HEMATOCRIT: 34.53%
  HEMOGLOBIN: 13.63 G/DL
  LEUKOCYTE COUNT: 12.27 x10E3/uL
  LYMPHOCYTE: 90.67%
  MEAN CORPUSCULAR HEMOGLOBIN: 24.87 pg
  MEAN CORPUSCULAR HEMOGLOBIN CONCENTRATION: 39.5 G/DL
  MEAN CORPUSCULAR VOLUME: 62.9 fL
  MONOCYTE: 0.67%
  NEUTROPHIL: 8.33%
  NUCLEATED RED BLOOD CELLS: 0 /100WBC
  PLATELET COUNT: 1200 x10E3/uL
  ALANINE AMINOTRANSFERASE: 47.33 u/L
  ALBUMIN: 4.13 G/DL
  ALKALINE PHOSPHATASE: 350 u/L
  ASPARTATE AMINOTRANSFERASE: 79.33 u/L
  BLOOD UREA NITROGEN: 15.67 mg/dL
  CARBON DIOXIDE: 32.67 mmol/L
  CHLORIDE: 98.33 MEQ/L
  CHOLESTEROL: 83 mg/dL
  CREATINE PHOSPHOKINASE: 313.33 u/L
  CREATININE: 0.15 mg/dL
  GLUCOSE: 135.67 mg/dL
  LACTATE DEHYDROGENASE: 118 u/L
  LIPASE: 9.67 u/L
  PHOSPHORUS: 10.5 mg/dL
  POTASSIUM: 6.4 MEQ/L
  SODIUM: 143.1 MEQ/L
  TOTAL BILIRUBIN: 0.23 mg/dL
  TOTAL PROTEIN: 5.9 G/DL
  URIC ACID: 1.33 mg/dL
[3]
  ABSOLUTE BASOPHIL: 0 CELLS/uL
  ABSOLUTE EOSINOPHIL: 0 CELLS/uL
  ABSOLUTE LYMPHOCYTE: 11750 CELLS/uL
  ABSOLUTE MONOCYTE: 375 CELLS/uL
  ABSOLUTE SEGMENTED NEUTROPHIL: 375 CELLS/uL
  BASOPHIL: 0%
  EOSINOPHIL: 0%
  ERYTHROCYTE COUNT: 6.36 x10E6/uL
  HEMATOCRIT: 36.8%
  HEMOGLOBIN: 14.2 G/DL
  LEUKOCYTE COUNT: 12.5 x10E3/uL
  LYMPHOCYTE: 94%
  MEAN CORPUSCULAR HEMOGLOBIN: 22.3 pg
  MEAN CORPUSCULAR HEMOGLOBIN CONCENTRATION: 38.6 G/DL
  MEAN CORPUSCULAR VOLUME: 57.9 fL
  MONOCYTE: 3%
  NEUTROPHIL: 3%
  NUCLEATED RED BLOOD CELLS: 0 /100WBC
  PLATELET COUNT: 1139 x10E3/uL
  ALANINE AMINOTRANSFERASE: 42 u/L
  ALBUMIN: 3.7 G/DL
  ALKALINE PHOSPHATASE: 225 u/L
  ASPARTATE AMINOTRANSFERASE: 68 u/L
  BLOOD UREA NITROGEN: 22 mg/dL
  CARBON DIOXIDE: 25 mmol/L
  CHLORIDE: 102 MEQ/L
  CHOLESTEROL: 82 mg/dL
  CREATINE PHOSPHOKINASE: 168 u/L
  CREATININE: 0.27 mg/dL
  GLUCOSE: 198 mg/dL
  LACTATE DEHYDROGENASE: 104 u/L
  LIPASE: 9 u/L
  PHOSPHORUS: 10.1 mg/dL
  POTASSIUM: 5.6 MEQ/L
  SODIUM: 144.4 MEQ/L
  TOTAL BILIRUBIN: 0.2 mg/dL
  TOTAL PROTEIN: 6.1 G/DL
  URIC ACID: 2.2 mg/dL
